According to ChEMBL document CHEMBL5537122, “Design, synthesis, and biological evaluation of 4-(2-fluorophenoxy)-7-methoxyquinazoline derivatives as dual EGFR/c-Met inhibitors for the treatment of NSCLC” (Eur J Med Chem, 2024):
Active and inactive are the calls of the source. The calls are words filed in the database; no cut-off is given here.

Tests used:
NCI-H1975 [1] = test: Induction in apoptosis in human NCI-H1975 cells assessed as late apoptotic cells at 2.5 uM incubated for 24 hrs by Annexin V-FITC/Propidium Iodide staining based flow cytometry analysis (reference value: 4.46 %); type: functional
A549 [2] = test: Antimigratory activity against EGF-induced cell migration in serum starved human A549 cells overexpressing c-MET assessed as increase in width of artificial gap incubated for 24 hrs by wound healing assay; type: functional, cell-based; details: dose 1-2.5 µM
[3] = Toxicity in BALB/c nude mouse xenografted with human A549 cells overexpressing c-MET assessed as change in body weight at 40 to 60 mg/kg, IG and measured for 24 days; type: organism-based; details: in vivo, po, 576 h, dose 40-60 mg/kg, time 24 day
A549 [4] = test: Induction of cell cycle arrest in human A549 cells overexpressing c-MET assessed as accumulation of cells at S phase at 1 uM incubated for 24 hrs by RNase A/propidium iodide staining based flow cytometric analysis (reference value: 37.87 %); type: functional
[5] = target: Serine/threonine-protein kinase Nek2 (Homo sapiens) (UniProt P51955); test: Inhibition of NEK2 (unknown origin) at 10 uM
[6] = target: Epidermal growth factor receptor (Homo sapiens, UniProt P00533); test: biochemical
Description: Inhibition of N-terminal GST tagged human recombinant EGFR (695 to end residues) expressed in baculovirus infected Sf9 cells using Poly (4:1 Glu, Tyr) as substrate incubated for 60 mins in presence of ATP by ADP-Glo luminescent assay

A549 [7] = test: Induction in apoptosis in human A549 cells overexpressing c-MET assessed as early apoptotic cells at 1 uM incubated for 24 hrs by Annexin V-FITC/Propidium Iodide staining based flow cytometry analysis (reference value: 7.27 %); type: functional
[8] = Acute toxicity in KM mouse assessed as effect on total protein level at 100 mg/kg, IG qd administered for 7 days by automatic biochemical analyzer; type: organism-based; details: in vivo, po, 168 h, time 7 day
A549 [9] = test: Inhibition of colony formation in human A549 cells overexpressing c-MET at 2 uM preincubated for 48 hrs followed by media replacement for every 2 days for 14 days by crystal violet staining based microscopic analysis relative to control; type: functional
A549 [10] = test: Downregulation of phosphorylated Akt expression level human A549 cells overexpressing c-MET incubated for 24 hrs by Western blotting analysis; type: functional, cell-based; details: dose 0.2-10 µM
[11] = Acute toxicity in KM mouse assessed as cell damage or necrosis in lung at 100 mg/kg, IG qa administered for 7 days and measured on day 8 by hematoxylin and eosin staining based assay; type: organism-based; details: in vivo, po, 192 h, time 8 day
NCI-H1975 [12] = test: Inhibition of colony formation in human NCI-H1975 cells at 2 uM preincubated for 48 hrs followed by media replacement for every 2 days for 14 days by crystal violet staining based microscopic analysis relative to control; type: functional
[13] = test system: Epidermal growth factor receptor (Homo sapiens), P00533 [L858R]; test: Inhibition of EGFR L858R mutant (unknown origin) at 10 uM relative to control
[14] = Hepatotoxicity in KM mouse assessed as alkaline phosphatase level at 100 mg/kg, IG qd administered for 7 days by automatic biochemical analyzer; type: toxicity, organism-based; details: in vivo, po, 168 h, time 7 day
NCI-H1975 [15] = test: Induction in apoptosis in human NCI-H1975 cells assessed as early apoptotic cells at 1 uM incubated for 24 hrs by Annexin V-FITC/Propidium Iodide staining based flow cytometry analysis (reference value: 2.54 %); type: functional
A549 [16] = test: Induction in apoptosis in human A549 cells overexpressing c-MET assessed as early apoptotic cells at 2.5 uM incubated for 24 hrs by Annexin V-FITC/Propidium Iodide staining based flow cytometry analysis (reference value: 7.27 %); type: functional
A549 [17] = test: Induction in apoptosis in human A549 cells overexpressing c-MET assessed as viable cells at 1 uM incubated for 24 hrs by Annexin V-FITC/Propidium Iodide staining based flow cytometry analysis (reference value: 81.92 %); type: functional; details: read-out: Activity
A549 [18] = test: Induction in apoptosis in human A549 cells overexpressing c-MET assessed as necrotic cells at 2.5 uM incubated for 24 hrs by Annexin V-FITC/Propidium Iodide staining based flow cytometry analysis (reference value: 3.22 %); type: functional
[19] = target: Receptor-type tyrosine-protein kinase FLT3 (Homo sapiens) (UniProt P36888); test: Inhibition of FLT3 (unknown origin) at 10 uM
NCI-H1975 [20] = test: Induction in apoptosis in human NCI-H1975 cells assessed as early apoptotic cells at 2.5 uM incubated for 24 hrs by Annexin V-FITC/Propidium Iodide staining based flow cytometry analysis (reference value: 2.54 %); type: functional
A549 [21] = test: Downregulation of phosphorylated c-Met protein expression human A549 cells overexpressing c-MET incubated for 24 hrs by Western blotting analysis; type: functional, cell-based; details: dose 1-10 µM
[22] = Hepatotoxicity in KM mouse assessed as effect on aspartate aminotransferase level at 100 mg/kg, IG qd administered for 7 days by automatic biochemical analyzer; type: toxicity, organism-based; details: in vivo, po, 168 h, time 7 day
[23] = Acute toxicity in KM mouse assessed as cell damage or necrosis in liver at 100 mg/kg, IG qa administered for 7 days and measured on day 8 by hematoxylin and eosin staining based assay; type: organism-based; details: in vivo, po, 192 h, time 8 day
A549 [24] = test: Induction in apoptosis in human A549 cells overexpressing c-MET assessed as necrotic cells at 1 uM incubated for 24 hrs by Annexin V-FITC/Propidium Iodide staining based flow cytometry analysis (reference value: 3.22 %); type: functional
A549 [25] = test: Induction in apoptosis in human A549 cells overexpressing c-MET assessed as late apoptotic cells at 1 uM incubated for 24 hrs by Annexin V-FITC/Propidium Iodide staining based flow cytometry analysis (reference value: 7.59 %); type: functional
[26] = Hemolytic activity in sheep erythrocytes at 128 ug/ml incubated for 2 hr by UV spectrophotometer relative to control; type: toxicity, cell-based, Ovis aries, Erythrocyte; details: at 128 µg/mL, read-out: Activity
A549 [27] = test: Induction of cell cycle arrest in human A549 cells overexpressing c-MET assessed as accumulation of cells at G2/M phase at 1 uM incubated for 24 hrs by RNase A/propidium iodide staining based flow cytometric analysis (reference value: 12.41 %); type: functional
NCI-H1975 [28] = test: Inhibition of colony formation in human NCI-H1975 cells at 1 uM preincubated for 48 hrs followed by media replacement for every 2 days for 14 days by crystal violet staining based microscopic analysis relative to control; type: functional
[29] = target: ALK tyrosine kinase receptor (Homo sapiens) (UniProt Q9UM73); test: Inhibition of ALK (unknown origin) at 10 uM
[30] = target: Fibroblast growth factor receptor 3 (Homo sapiens) (UniProt P22607); test: Inhibition of FGFR3 (unknown origin) at 10 uM
[31] = Acute toxicity in KM mouse assessed as cell damage or necrosis in heart at 100 mg/kg, IG qa administered for 7 days and measured on day 8 by hematoxylin and eosin staining based assay; type: organism-based; details: in vivo, po, 192 h, time 8 day
[32] = target: Macrophage-stimulating protein receptor (Homo sapiens) (UniProt Q04912); test: Inhibition of RON (unknown origin) at 10 uM
[33] = Nephrotoxicity in KM mouse assessed as effect on urea level at 100 mg/kg, IG qd administered for 7 days by automatic biochemical analyzer; type: toxicity, organism-based; details: in vivo, po, 168 h, time 7 day
L02 = test: Induction in apoptosis in human L02 cells assessed as necrotic cells at 1 uM incubated for 24 hrs by Annexin V-FITC/Propidium Iodide staining based flow cytometry analysis (reference value: 6.63 %); type: toxicity, cell-based; details: l02, 24 h

Sequence of Macrophage-stimulating protein receptor (Homo sapiens) (Q04912 25-304 limits assumed): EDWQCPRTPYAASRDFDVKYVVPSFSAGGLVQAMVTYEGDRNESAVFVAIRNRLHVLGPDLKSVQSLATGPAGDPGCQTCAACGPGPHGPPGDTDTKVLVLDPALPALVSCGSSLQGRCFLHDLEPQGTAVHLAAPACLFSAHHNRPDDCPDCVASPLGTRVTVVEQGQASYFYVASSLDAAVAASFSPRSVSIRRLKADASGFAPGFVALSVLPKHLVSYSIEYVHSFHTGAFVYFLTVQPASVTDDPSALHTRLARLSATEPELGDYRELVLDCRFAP
Sequence of Macrophage-stimulating protein receptor (Homo sapiens) (Q04912 310-1400 limits assumed): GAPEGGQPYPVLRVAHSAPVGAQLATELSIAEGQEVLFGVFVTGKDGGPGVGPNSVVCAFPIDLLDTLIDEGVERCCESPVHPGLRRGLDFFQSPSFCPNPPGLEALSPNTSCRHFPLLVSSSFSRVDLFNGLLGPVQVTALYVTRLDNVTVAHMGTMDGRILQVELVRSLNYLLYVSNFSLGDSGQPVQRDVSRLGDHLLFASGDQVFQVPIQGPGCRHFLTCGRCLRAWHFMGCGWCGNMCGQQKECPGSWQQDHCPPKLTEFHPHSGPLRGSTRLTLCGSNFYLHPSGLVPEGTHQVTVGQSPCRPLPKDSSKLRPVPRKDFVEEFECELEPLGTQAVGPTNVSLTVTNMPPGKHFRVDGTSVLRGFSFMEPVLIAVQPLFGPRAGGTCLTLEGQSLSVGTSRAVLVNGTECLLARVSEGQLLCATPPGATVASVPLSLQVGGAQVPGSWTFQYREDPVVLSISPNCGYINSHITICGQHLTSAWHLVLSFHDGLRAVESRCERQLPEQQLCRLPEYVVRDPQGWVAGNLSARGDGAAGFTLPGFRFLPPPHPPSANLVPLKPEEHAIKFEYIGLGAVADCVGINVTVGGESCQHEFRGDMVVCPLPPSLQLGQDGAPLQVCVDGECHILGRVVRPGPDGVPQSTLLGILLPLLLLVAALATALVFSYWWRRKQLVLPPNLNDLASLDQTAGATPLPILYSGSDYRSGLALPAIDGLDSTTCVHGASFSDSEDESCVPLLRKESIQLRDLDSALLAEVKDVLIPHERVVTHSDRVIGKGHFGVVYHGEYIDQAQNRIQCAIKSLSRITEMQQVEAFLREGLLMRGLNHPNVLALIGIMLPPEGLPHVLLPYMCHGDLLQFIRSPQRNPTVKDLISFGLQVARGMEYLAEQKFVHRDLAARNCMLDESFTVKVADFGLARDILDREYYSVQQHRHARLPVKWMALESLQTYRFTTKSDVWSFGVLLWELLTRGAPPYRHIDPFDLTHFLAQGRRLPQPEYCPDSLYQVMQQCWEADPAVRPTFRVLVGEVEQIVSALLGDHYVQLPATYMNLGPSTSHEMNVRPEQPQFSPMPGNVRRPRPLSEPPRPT
Sequence of Serine/threonine-protein kinase Nek2 (Homo sapiens) (P51955 whole entry): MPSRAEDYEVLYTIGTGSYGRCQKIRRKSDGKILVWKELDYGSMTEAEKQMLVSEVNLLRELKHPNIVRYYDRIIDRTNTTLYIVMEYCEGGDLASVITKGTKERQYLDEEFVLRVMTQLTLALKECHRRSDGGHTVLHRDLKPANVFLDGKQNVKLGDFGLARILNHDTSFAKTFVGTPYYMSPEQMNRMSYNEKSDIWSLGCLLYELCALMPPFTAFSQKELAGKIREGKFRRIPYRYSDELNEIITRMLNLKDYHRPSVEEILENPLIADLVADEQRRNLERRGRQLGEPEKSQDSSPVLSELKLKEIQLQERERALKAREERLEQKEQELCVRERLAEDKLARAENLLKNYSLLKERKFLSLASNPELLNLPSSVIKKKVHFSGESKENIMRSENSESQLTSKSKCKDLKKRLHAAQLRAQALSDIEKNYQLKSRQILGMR
Sequence of Receptor-type tyrosine-protein kinase FLT3 (Homo sapiens) (P36888 whole entry): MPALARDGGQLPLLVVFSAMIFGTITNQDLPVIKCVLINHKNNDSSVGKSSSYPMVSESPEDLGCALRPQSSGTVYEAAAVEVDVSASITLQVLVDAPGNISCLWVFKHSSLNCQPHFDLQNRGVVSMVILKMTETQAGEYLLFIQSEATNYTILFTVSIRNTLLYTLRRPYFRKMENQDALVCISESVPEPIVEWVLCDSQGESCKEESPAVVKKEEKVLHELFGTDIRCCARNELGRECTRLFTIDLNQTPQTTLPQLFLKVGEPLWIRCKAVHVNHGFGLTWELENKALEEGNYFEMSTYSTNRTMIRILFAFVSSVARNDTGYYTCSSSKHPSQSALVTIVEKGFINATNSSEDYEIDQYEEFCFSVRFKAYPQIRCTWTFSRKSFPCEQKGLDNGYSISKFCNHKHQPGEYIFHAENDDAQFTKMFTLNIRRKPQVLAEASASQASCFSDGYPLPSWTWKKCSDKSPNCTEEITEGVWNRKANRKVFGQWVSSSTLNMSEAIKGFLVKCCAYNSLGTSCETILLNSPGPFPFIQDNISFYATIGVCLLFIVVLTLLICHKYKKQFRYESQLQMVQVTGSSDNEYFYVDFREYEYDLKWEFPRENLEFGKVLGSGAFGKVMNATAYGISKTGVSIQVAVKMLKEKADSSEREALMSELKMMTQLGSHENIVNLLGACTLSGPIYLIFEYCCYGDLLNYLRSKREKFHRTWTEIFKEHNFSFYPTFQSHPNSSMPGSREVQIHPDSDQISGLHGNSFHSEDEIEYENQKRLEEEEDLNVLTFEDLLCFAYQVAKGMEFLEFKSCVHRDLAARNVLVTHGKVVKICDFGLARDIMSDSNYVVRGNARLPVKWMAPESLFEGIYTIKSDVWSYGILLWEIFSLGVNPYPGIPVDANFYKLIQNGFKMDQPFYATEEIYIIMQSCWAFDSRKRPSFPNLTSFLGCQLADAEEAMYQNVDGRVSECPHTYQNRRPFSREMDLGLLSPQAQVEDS
Sequence of Epidermal growth factor receptor (Homo sapiens), P00533 [L858R] (P00533 whole entry L858R): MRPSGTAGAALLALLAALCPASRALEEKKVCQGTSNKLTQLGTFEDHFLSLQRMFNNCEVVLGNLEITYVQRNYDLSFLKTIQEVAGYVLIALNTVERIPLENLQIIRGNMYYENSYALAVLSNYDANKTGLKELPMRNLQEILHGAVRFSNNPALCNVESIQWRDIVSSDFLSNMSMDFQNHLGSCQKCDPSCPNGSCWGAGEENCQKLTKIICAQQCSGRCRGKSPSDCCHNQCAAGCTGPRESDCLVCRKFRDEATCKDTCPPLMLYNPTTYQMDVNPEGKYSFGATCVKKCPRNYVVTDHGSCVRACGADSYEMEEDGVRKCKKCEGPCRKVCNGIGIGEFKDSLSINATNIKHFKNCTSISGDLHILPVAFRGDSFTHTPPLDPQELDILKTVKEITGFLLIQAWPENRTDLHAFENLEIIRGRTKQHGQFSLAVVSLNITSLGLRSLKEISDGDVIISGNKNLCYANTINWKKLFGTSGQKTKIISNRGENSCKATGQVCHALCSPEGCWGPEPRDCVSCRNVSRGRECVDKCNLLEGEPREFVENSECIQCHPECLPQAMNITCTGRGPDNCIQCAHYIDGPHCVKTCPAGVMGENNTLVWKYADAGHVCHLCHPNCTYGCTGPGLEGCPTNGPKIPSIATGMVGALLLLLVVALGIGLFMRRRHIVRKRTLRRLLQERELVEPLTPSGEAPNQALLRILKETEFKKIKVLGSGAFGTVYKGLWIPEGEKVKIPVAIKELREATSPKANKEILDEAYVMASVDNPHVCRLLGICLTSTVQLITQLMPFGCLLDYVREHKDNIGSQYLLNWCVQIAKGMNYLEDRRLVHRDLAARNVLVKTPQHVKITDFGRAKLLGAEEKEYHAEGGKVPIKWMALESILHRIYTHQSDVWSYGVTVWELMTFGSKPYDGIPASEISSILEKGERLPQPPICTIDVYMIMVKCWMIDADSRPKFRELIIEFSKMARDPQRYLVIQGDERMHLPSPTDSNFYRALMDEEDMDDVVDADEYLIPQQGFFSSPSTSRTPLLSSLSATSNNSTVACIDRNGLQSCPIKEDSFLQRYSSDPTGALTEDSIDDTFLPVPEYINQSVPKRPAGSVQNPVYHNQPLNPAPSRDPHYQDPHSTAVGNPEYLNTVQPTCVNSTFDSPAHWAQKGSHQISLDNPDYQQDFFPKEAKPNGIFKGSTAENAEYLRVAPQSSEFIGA
Sequence of Fibroblast growth factor receptor 3 (Homo sapiens) (P22607 23-806 limits assumed): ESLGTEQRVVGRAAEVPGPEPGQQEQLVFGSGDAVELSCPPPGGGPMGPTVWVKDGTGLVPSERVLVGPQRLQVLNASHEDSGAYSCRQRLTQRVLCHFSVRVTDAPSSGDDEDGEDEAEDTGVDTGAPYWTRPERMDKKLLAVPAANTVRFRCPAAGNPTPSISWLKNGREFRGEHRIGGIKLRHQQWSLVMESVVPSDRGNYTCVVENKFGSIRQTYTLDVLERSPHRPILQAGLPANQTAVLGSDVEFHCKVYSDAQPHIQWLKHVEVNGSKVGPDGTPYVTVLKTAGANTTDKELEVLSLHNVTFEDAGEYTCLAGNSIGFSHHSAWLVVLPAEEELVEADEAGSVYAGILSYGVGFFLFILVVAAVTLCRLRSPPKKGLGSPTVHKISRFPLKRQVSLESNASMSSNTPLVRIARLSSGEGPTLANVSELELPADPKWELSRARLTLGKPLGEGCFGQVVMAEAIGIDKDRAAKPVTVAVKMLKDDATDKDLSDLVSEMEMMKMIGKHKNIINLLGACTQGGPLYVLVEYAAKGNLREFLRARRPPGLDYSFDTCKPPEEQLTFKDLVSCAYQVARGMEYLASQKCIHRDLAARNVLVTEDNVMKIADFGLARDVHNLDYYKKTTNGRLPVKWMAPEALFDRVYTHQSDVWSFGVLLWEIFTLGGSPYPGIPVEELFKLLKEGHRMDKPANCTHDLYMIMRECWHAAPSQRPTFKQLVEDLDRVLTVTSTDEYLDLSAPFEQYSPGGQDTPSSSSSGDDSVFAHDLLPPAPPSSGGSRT

Structure (SMILES): C=CC(=O)Nc1cc2c(Oc3ccc(NC(=O)n4c(=O)c(-c5ccccc5)c(C)n4C)cc3F)cccc2cc1OC
- Activity (NCI-H1975 [1]): 8.17%
- Activity (A549 [2]): Dose-Dependent Effect
- Activity [3]: Non-Toxic
- Activity (A549 [4]): 35.49%
- inhibition [5]: inactive
- IC50 [6]: 0.0998 µM
- Activity (A549 [7]): 10.4%
- Activity [8]: Non-Toxic
- inhibition at 2 µM (A549 [9]): ~100%
- Activity (A549 [10]): Dose-Dependent Effect
- Activity [11]: Non-Toxic
- inhibition at 2 µM (NCI-H1975 [12]): ~100%
- inhibition [13]: > 90%
- Activity [14]: > 60 U/L
- Activity (NCI-H1975 [15]): 2.77%
- Activity (A549 [16]): 10.44%
- viability at 1 µM (A549 [17]): 70.9%
- Activity (A549 [18]): 6.65%
- inhibition [19]: inactive
- Activity (NCI-H1975 [20]): 3.87%
- Activity (A549 [21]): Dose-Dependent Effect
- Activity [22]: Non-Toxic
- Activity [23]: Non-Toxic
- Activity (A549 [24]): 6.61%
- Activity (A549 [25]): 12.12%
- hemolysis at 2 h, 128 ug/ml [26]: 5%
- Activity (A549 [27]): 11.29%
- inhibition at 1 µM (NCI-H1975 [28]): ~50%
- inhibition [29]: inactive
- inhibition [30]: inactive
- Activity [31]: Non-Toxic
- inhibition [32]: Active
- Activity [33]: Non-Toxic
- Activity (L02): 7.58%
